Results: PubChem BioAssay AID1963421 (Molecular Pharmacology Branch, DTP, NCI, 2024)
“And” between values parts separate entries of the source, which are not always exact repeats. Equal entries are not always repeated.

Test system: 519858-162-T-J1-PDC complex spheroid growth, % test/control
Experiment: Anticancer human tumor 519858-162-T-J1-PDC patient-derived colon adenocarcinoma cell line growth inhibition [Asc]
Conditions: for viability, T/C: stronger effect = lower value
Method in brief: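 Spheroid model: tumor line + HUVEC + hMSC. Single agents and combinations; top conc. at/near clinical Cmax (10 microM if undetermined), half-log dilutions. DMSO stocks at 800-fold test concentration.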
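Further: seven day drug exposure begun three days after spheroid seeding.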
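Wherever viability, T/C is given: 100% = DMSO vehicle wells and lower values mean less viable spheroid.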

## NC1CCC(NC2CC2c2ccccc2)CC1 (centres undefined) + CNC(C)C(=O)NC1CN(S(=O)(=O)c2cccc(S(=O)(=O)N3CCC4CCC(C(=O)NC(c5ccccc5)c5ccccc5)N4C(=O)C(NC(=O)C(C)NC)C3)c2)CCC2CCC(C(=O)NC(c3ccccc3)c3ccccc3)N2C1=O
Curve of first compound, second compound 0.00316 µM
  IC50: > 100 nM
Curve of first compound, second compound 0.01 µM
  IC50: > 100 nM
Curve of first compound, second compound 0.0316 µM
  IC50: > 100 nM
Curve of first compound, second compound 0.1 µM
  IC50: > 100 nM
Curve of first compound, second compound 0.316 µM
  IC50: > 100 nM
Curve of first compound, second compound 1 µM
  IC50: > 100 nM
Second compound 0.00316 µM, first compound 0.000316 µM
  viability, T/C: 106%
Second compound 0.00316 µM, first compound 0.001 µM
  viability, T/C: 90.1%
Second compound 0.00316 µM, first compound 0.00316 µM
  viability, T/C: 117%
Second compound 0.00316 µM, first compound 0.01 µM
  viability, T/C: 112%
Second compound 0.00316 µM, first compound 0.0316 µM
  viability, T/C: 92.4%
Second compound 0.00316 µM, first compound 0.1 µM
  viability, T/C: 85.3%
Second compound 0.01 µM, first compound 0.000316 µM
  viability, T/C: 129%
Second compound 0.01 µM, first compound 0.001 µM
  viability, T/C: 83.7%
Second compound 0.01 µM, first compound 0.00316 µM
  viability, T/C: 112%
Second compound 0.01 µM, first compound 0.01 µM
  viability, T/C: 88.5%
Second compound 0.01 µM, first compound 0.0316 µM
  viability, T/C: 109%
Second compound 0.01 µM, first compound 0.1 µM
  viability, T/C: 106%
Second compound 0.0316 µM, first compound 0.000316 µM
  viability, T/C: 89%
Second compound 0.0316 µM, first compound 0.001 µM
  viability, T/C: 111%
Second compound 0.0316 µM, first compound 0.00316 µM
  viability, T/C: 91.9%
Second compound 0.0316 µM, first compound 0.01 µM
  viability, T/C: 97.4%
Second compound 0.0316 µM, first compound 0.0316 µM
  viability, T/C: 95.5%
Second compound 0.0316 µM, first compound 0.1 µM
  viability, T/C: 102%
Second compound 0.1 µM, first compound 0.000316 µM
  viability, T/C: 105%
Second compound 0.1 µM, first compound 0.001 µM
  viability, T/C: 112%
Second compound 0.1 µM, first compound 0.00316 µM
  viability, T/C: 121%
Second compound 0.1 µM, first compound 0.01 µM
  viability, T/C: 94.9%
Second compound 0.1 µM, first compound 0.0316 µM
  viability, T/C: 109%
Second compound 0.1 µM, first compound 0.1 µM
  viability, T/C: 90%
Second compound 0.316 µM, first compound 0.000316 µM
  viability, T/C: 77.2%
Second compound 0.316 µM, first compound 0.001 µM
  viability, T/C: 81.5%
Second compound 0.316 µM, first compound 0.00316 µM
  viability, T/C: 118%
Second compound 0.316 µM, first compound 0.01 µM
  viability, T/C: 81.4%
Second compound 0.316 µM, first compound 0.0316 µM
  viability, T/C: 92.1%
Second compound 0.316 µM, first compound 0.1 µM
  viability, T/C: 102%
Second compound 1 µM, first compound 0.000316 µM
  viability, T/C: 82.9%
Second compound 1 µM, first compound 0.001 µM
  viability, T/C: 101%
Second compound 1 µM, first compound 0.00316 µM
  viability, T/C: 115%
Second compound 1 µM, first compound 0.01 µM
  viability, T/C: 81.3%
Second compound 1 µM, first compound 0.0316 µM
  viability, T/C: 85.8%
Second compound 1 µM, first compound 0.1 µM
  viability, T/C: 80.3%

## C#Cc1c(F)ccc2cc(O)cc(-c3ncc4c(N5CC6CCC(C5)N6)nc(OCC56CCCN5CC(F)C6)nc4c3F)c12 (centres undefined)
Compound 0.0316 µM
  viability, T/C: 89.4% and 98.1% and 81.9%
Compound 0.1 µM
  viability, T/C: 126% and 101% and 93.3%
Compound 0.316 µM
  viability, T/C: 102% and 92.8% and 90.6%
Compound 1 µM
  viability, T/C: 88.3% and 89.3% and 83.3%
Compound 3.16 µM
  viability, T/C: 86.9% and 78.3% and 64.9%
Compound 10 µM
  viability, T/C: 68.7% and 66.2% and 72.1%
Curve of compound
  IC50: > 10000 nM
